The results in this text go back to publication PMC3433420 (PLoS ONE, 2012).

Assay [1] has as its system 93 human SH2 domains and 2 phosphotyrosine binding (PTB) domains. Briefly: FP saturation binding assay, whole domain panel (protein named per line or not at all). To be noted: for interaction with the SH2/PTB domain panel: KD <= 20 µM counted as interaction; for SH2 domains found to interact: high-confidence interactions (Table S11, Figure S14). As to the method:
(§1) (See Figure 1A) Rhodamine-labeled peptides were dissolved in assay buffer (20 mM HEPES, 100 mM KCl, 0.1% Tween-20, 5 mM DTT, pH 7.8), diluted to a concentration of 20 nM, and plated into black 384-well plates (Corning, Corning, NY) at 5 µL/well using a Perkin Elmer EP3 pipetting workstation (V&P Scientific, Inc., San Diego, CA). SH2, PTB, and thioredoxin control proteins were plated into the first column of 2 mL 96-well plates (Corning) at a concentration of 20 µM and serially diluted 1∶2 into freezing buffer (300 mM NaCl, 50 mM Na2PO4, pH 8, 20% glycerol v/v) eleven times using a Tecan Freedom EVO 100 workstation (Tecan, Männedorf, Switzerland). For the interaction assay, 5 µL of each of the twelve protein concentrations was added to the peptide-containing 384-well plates via the EP3 resulting in a protein dilution range of 0.002–10 µM and a final volume of 10 µL; peptide concentration was fixed at 10 nM. Peptide/protein samples were incubated for 20 minutes at room temperature in the dark and fluorescence polarization (FP) was measured in an Analyst GT multimode reader (Molecular Devices, Sunnyvale, CA) with excitation and emission wavelengths of 530 nm and 555 nm, respectively. Experimental values were output as millipolarization (mP) units and imported into MATLAB (The MathWorks, Inc., Natick, MA) in which equation (1) was used to determine dissociation constants (KDs) for each protein/peptide pairing by least squares nonlinear regression. [drawing 1] (1)
To scale up the number of interaction measurements while minimizing variation introduced by human intervention, we utilized an automated robotic platform (Figure 1A; see experimental procedures and Supplementary Methods) to transfer, incubate, and measure the fluorescence polarization (FP) induced from interactions of a titration series of SH2 domains with synthetic rhodamine-labeled ErbB phosphopeptides. Experimental values were output as millipolarization (mP) units and equation (1) was used to fit apparent midpoint dissociation constants (KDs) for each protein/peptide pair using non-linear regression (see experimental procedures).
For this interaction analysis, we synthesized and queried the interaction of phosphopeptides corresponding to 89 of 92 ErbB family intracellular tyrosines with 93 SH2 domains. Because nine peptide sequences share 100% identity between the receptors in the 4 to 7 amino acids C-terminal to the phosphorylated tyrosine, our peptide set consisted of 81 phosphopeptides corresponding to the 89 unique tyrosine containing sequences (Table S2). This peptide set represents a 50% increase over the three PM studies performed to date. We were therefore able to obtain a more systematic and unbiased view of the relative SH2 domain recruitment potential of each receptor. Although most ErbB receptor auto-phosphorylation sites have been detected frequently by mass spectrometry because of their high relative modification stoichiometry, non-auto-phosphorylation sites have been reported less frequently in the literature (Table S3). We reasoned that many physiologically relevant and uncharacterized ErbB tyrosines of low phosphorylation stoichiometry may exist and that our comprehensive interaction analysis might implicate their importance in mediating physiological interactions. We tested the majority of interactions (7099/8160 (87.0%); Figure S3) three or more times and reported standard error for all interactions that were detected in at least three FP runs (Table S4). […] Analysis of this polarization data may be useful for inferring how SH2 proteins bind to different peptide sequences. Larger proteins and proteins binding closer to the N-terminal rhodamine tag of a given peptide would be expected to induce higher maximal polarization (the calculated maximal polarization value at infinite protein concentration) than proteins binding farther from the tag. In addition to phosphopeptides, we queried a representative set of 27 non-phosphopeptides against the entire domain set. […]

The target of the next assay is T1, PIK3R3-N SH2 domain (Homo sapiens, UniProt Q92569).
T1 construct: 6X His; thioredoxin; made in house; host or cells: E. coli BL21(DE3)pLysS
Briefly: FP saturation binding assay. Conditions: high-confidence ErbB interactions. As to the method:
as §1
(§2) FP was described by the following equation: P=Iparallel-IperpendicularIparallel+Iperpendicular, where “P” denotes polarization, and “I” denotes the fluorescent intensity relative to the plane of incident light. Experimental values were output as millipolarization (mP) units and imported into MATLAB where the following equation was used to determine dissociation constants (KDs) for each protein/peptide pairing by least squares nonlinear regression:
(§3) Pobs=Pmax∙ProteinKD+Protein [picture] (1)
(§4) Peptides were initially tested for systematic plate effects across protein dilutions and nonspecific binding to thioredoxin by linear regression analysis and any effects were regressed out. The median baseline control polarization value for each plate was then subtracted from each data point to make each binding curve intersect at zero. Plates with excessive variation in baseline control polarizations on both a global and run-specific manner (Dixon’s Q test, p < 0.05) were excluded from further analysis. Outliers in each binding curve were identified and removed using an iterative procedure as follows. The residuals for each fit were used to calculate a global standard deviation of the residuals (GSDR) for each concentration of SH2 domain over all interactions, and individual data points with residuals < or > two GSDR from the global mean residual were flagged as outliers. The outlier with the largest residual from each interaction was removed and nonlinear regression was again performed. This procedure was repeated if additional outliers were identified for an interaction, discarding the interaction if the number of outliers exceeded three. […] In order to further control our false positive rate against hidden confounding variables producing binding artifacts, we sought to determine whether there was a significant relationship between the strength of an interaction and its technical replication rate at our stringent significance and filtering thresholds. We performed logistic regression on the proportion of successful replicates for each interaction query against KD for all interactions (Figure S15A). […] This is related to the observation that the majority of interactions detected by FP are tight (Figure S15B). With this logit model, we assigned a probability to each peptide-protein interaction in our data by using a binomial proportions test to compare the observed versus the expected replication rate at the particular KD of that interaction (Table S4). […]

For assay [2], the target named is PIK3R2-NC tandem SH2 domains (Homo sapiens, UniProt O00459). Briefly: FP saturation binding assay.
PIK3R2-NC tandem SH2 domains, sequence (O00459 330-716 limits assumed): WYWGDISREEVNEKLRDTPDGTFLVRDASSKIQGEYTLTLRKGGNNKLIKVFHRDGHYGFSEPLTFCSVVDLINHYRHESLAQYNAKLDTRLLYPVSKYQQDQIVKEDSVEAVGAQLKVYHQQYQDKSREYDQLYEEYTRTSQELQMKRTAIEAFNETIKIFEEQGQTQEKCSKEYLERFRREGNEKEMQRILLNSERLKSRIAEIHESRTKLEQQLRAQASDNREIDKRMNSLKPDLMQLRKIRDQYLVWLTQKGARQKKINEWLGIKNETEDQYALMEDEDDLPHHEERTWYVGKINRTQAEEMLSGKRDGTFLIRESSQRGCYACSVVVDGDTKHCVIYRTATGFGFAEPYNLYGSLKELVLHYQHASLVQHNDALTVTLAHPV
Assay [3] deals with T2, PLCG1-NC tandem SH2 domains (Homo sapiens, UniProt P19174).
T2 construct: the tandem protein was included in our analysis with all internal amino acids linking the domains; 6X His; thioredoxin; made in house; host or cells: E. coli BL21(DE3)pLysS
T2 sequence (P19174 550-756 limits assumed): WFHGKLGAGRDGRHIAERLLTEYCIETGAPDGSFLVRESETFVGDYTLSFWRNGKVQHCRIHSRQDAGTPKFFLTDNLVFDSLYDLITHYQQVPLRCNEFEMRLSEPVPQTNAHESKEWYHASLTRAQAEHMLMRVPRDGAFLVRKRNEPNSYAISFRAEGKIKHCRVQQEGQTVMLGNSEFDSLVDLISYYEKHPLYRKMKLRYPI
Briefly: FP saturation binding assay. To be noted: Protein PLCG1-NC; FP saturation binding, high-confidence ErbB interactions; mean over replicate hits. The method, then:
as §1, with “Peptide/protein samples were incubated for 20 minutes at room temperature in the dark and fluorescence polarization (FP) was measured in an Analyst GT multimode reader (Molecular Devices, Sunnyvale, CA) with excitation and emission wavelengths of 530 nm and 555 nm, respectively.” left out
as §2, §3
Peptides were initially tested for systematic plate effects across protein dilutions and nonspecific binding to thioredoxin by linear regression analysis and any effects were regressed out. The median baseline control polarization value for each plate was then subtracted from each data point to make each binding curve intersect at zero. Plates with excessive variation in baseline control polarizations on both a global and run-specific manner (Dixon’s Q test, p < 0.05) were excluded from further analysis. Outliers in each binding curve were identified and removed using an iterative procedure as follows. The residuals for each fit were used to calculate a global standard deviation of the residuals (GSDR) for each concentration of SH2 domain over all interactions, and individual data points with residuals < or > two GSDR from the global mean residual were flagged as outliers. The outlier with the largest residual from each interaction was removed and nonlinear regression was again performed. This procedure was repeated if additional outliers were identified for an interaction, discarding the interaction if the number of outliers exceeded three. […] In order to further control our false positive rate against hidden confounding variables producing binding artifacts, we sought to determine whether there was a significant relationship between the strength of an interaction and its technical replication rate at our stringent significance and filtering thresholds. We performed logistic regression on the proportion of successful replicates for each interaction query against KD for all interactions (Figure S15A). […] “High-confidence” FP interactions are defined as those having 1 - P(Observed Replication Rate | Expectation) > 0.5 and that have replicated at least twice across independent FP runs. […] The compiled FP data were organized into heatmaps generated by MATLAB and relative binding strength (µM). Peptides without at least one positive hit were classified as “no interaction” if there was no homologous sequence (i.e. identical at the +1 to +4 positions relative to the phosphotyrosine) that produced a positive interaction within the ErbB receptor family.

Assay [4] concerns the target T3, PIK3R3-NC tandem SH2 domains (Homo sapiens, UniProt Q92569).
T3 construct: the tandem protein was included in our analysis with all internal amino acids linking the domains; 6X His; thioredoxin; made in house; host or cells: E. coli BL21(DE3)pLysS
Briefly: FP saturation binding assay. To be noted: protein PIK3R3-NC; FP, high-confidence ErbB interactions; mean of replicate hits. The method, then:
as §1, §2, §3, §4

The target of another assay is T4, PIK3R1-N SH2 domain (Homo sapiens, UniProt P27986).
T4 construct: thioredoxin; made in house; host or cells: E. coli BL21(DE3)pLysS
T4 sequence (P27986 333-428 limits assumed): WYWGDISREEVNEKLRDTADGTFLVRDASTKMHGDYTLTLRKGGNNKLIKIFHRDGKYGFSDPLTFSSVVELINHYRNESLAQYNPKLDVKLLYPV
Briefly: biochemical. In kind it is binding. Conditions: Protein PIK3R1-N; FP saturation binding, high-confidence ErbB interactions; mean over replicate hits.

Residues, ends and D or L forms follow the SMILES beside them.

As to “DVWSpYGVTIWELd [ErbB4 pY906, N-terminally rhodamine-labeled 13-mer phosphopeptide]”, in assay [1], the “interaction with the SH2/PTB domain panel” value is listed as “reproducibly interacted at high affinity with many SH2 domains”; the “SH2 domains found to interact” value is “interacted with ZAP70, GRB7, and GRB10 SH2 domains”.
Take `CC(C)C[C@H](NC(=O)CNC(=O)[C@H](CC(C)C)NC(=O)[C@H](Cc1ccc(OP(=O)(O)O)cc1)NC(=O)[C@H](CCC(=O)O)NC(=O)[C@@H]1CCCN1C(=O)[C@H](CC(N)=O)NC(=O)[C@@H](N)CCC(=O)O)C(=O)N[C@@H](CC(=O)O)C(=O)N[C@H](C(=O)N1CCC[C@H]1C(=O)N[C@H](C(=O)N[C@@H](CC(=O)O)C(=O)O)C(C)C)C(C)C` [ErbB2 1248 13-mer] (HELM PEPTIDE1{E.N.P.E.[O=C([C@H](Cc1ccc(OP(=O)(O)O)cc1)N[*:1])[*:2]].L.G.L.D.V.P.V.D}$$$$V2.0): the Kd (commonly a measure of binding affinity in units of concentration) at PIK3R3-N SH2 domain (Protein PIK3R3-N, FP saturation binding, mean over replicate hits) stood at 11200 nM; in assay [2] it was 9900 nM; in assay [3], 9970 nM.
Turning to `CSCC[C@H](NC(=O)[C@H](Cc1ccc(O)cc1)NC(=O)[C@H](CCC(=O)O)NC(=O)[C@H](Cc1ccc(OP(=O)(O)O)cc1)NC(=O)[C@H](CCC(=O)O)NC(=O)[C@H](CCC(=O)O)NC(=O)[C@H](CC(=O)O)NC(=O)[C@@H](N)CCC(=O)O)C(=O)N[C@@H](CC(N)=O)C(=O)N[C@@H](CCCNC(=N)N)C(=O)N[C@@H](CCCNC(=N)N)C(=O)N[C@@H](CCCNC(=N)N)C(=O)N[C@@H](CC(=O)O)C(=O)O` [ErbB3 1197 13-mer] (HELM PEPTIDE1{E.D.E.E.[O=C([C@H](Cc1ccc(OP(=O)(O)O)cc1)N[*:1])[*:2]].E.Y.M.N.R.R.R.D}$$$$V2.0), the Kd in assay [4] is 200 nM; at PIK3R3-N SH2 domain (protein PIK3R3-N, FP, mean of replicate hits), 1320 nM.
On to `CSCC[C@H](NC(=O)[C@@H]1CCCN1C(=O)[C@H](CCSC)NC(=O)[C@H](Cc1ccc(OP(=O)(O)O)cc1)NC(=O)CNC(=O)[C@H](CO)NC(=O)[C@H](CO)NC(=O)[C@@H]1CCCN1)C(=O)N[C@@H](CC(N)=O)C(=O)N[C@@H](CCC(N)=O)C(=O)NCC(=O)N[C@@H](CC(N)=O)C(=O)N[C@@H](CC(=O)O)C(=O)O` [ErbB3 1054 13-mer] (HELM PEPTIDE1{P.S.S.G.[O=C([C@H](Cc1ccc(OP(=O)(O)O)cc1)N[*:1])[*:2]].M.P.M.N.Q.G.N.D}$$$$V2.0), for which the dissociation constant Kd in assay [4] came out at 260 nM; at PIK3R1-N SH2 domain, 1800 nM.
Turning to “DAEEpYLVPQAFN [ErbB4 pY1022, N-terminally rhodamine-labeled 13-mer phosphopeptide]”, in assay [1], the “interaction with the SH2/PTB domain panel” value is “did not produce any interaction hits”.
Regarding “KIRKpYTMRRLLQd [ErbB2 pY685, N-terminally rhodamine-labeled 13-mer phosphopeptide]”, in assay [1], the “interaction with the SH2/PTB domain panel” value is “reproducibly interacted at high affinity with many SH2 domains” and the “SH2 domains found to interact” value was “interacted with SOCS family SH2 domains”.
